Experimental data: paper PMC9653339, “Revisiting the anticancer properties of phosphane(9-ribosylpurine-6-thiolato)gold(I) complexes and their 9H-purine precursors” (Journal of Biological Inorganic Chemistry, 2022)

Tests used:
[1] = tested on: EA.hy926 endothelial hybrid cells; assay: MTT cell viability assay, EA.hy926; format: cell-based, human; conditions: 72 h
Method: (§1) All complexes stable in solution were investigated for their anti-proliferative effect on nine human cancer cell lines, using the MTT-based cell viability assay. Cells were seeded in 96-well microtiter plates (Sarstedt) with a cell density of 0.05 × 10^6 cells per ml and 100 µL per well and incubated for 24 h. A dilution series of test compounds was added to the wells, ranging in twelve steps from 100 µM to 5 nM. As a control, equal amounts of DMSO were added. Treated cells were further incubated for 72 h. Then, 12.5 µL per well of MTT solution (0.05% in phosphate-buffered saline (PBS)) was added, followed by another 2 h of incubation. The plates were centrifuged, the medium was discarded and 25 µL per well of SDS solution in DMSO (10% SDS, 0.6% AcOH in DMSO) was added to dissolve the formazan. The plates were incubated for a further hour. Absorbances at 570 nm and 630 nm were measured using a plate reader (Tecan). Background absorbance (630 nm) was subtracted from the formazan signal (570 nm). The resulting absorbance was directly proportional to the amount of viable cells. The control was normalized to 100% viable cells and viability of cells treated with test compounds was calculated accordingly. IC50 values were calculated based on a sigmoidal fit model using GraphPad Prism. Means and SD were calculated from at least four independent experiments.

[2] = tested on: HCT-116^wt colon carcinoma cells; assay: MTT cell viability assay, HCT-116wt; format: cell-based, human; conditions: 72 h
Method: as §1, with “Cells” for “All complexes stable in solution were investigated for their anti-proliferative effect on nine human cancer cell lines, using the MTT-based cell viability assay. Cells”

[3] = tested on: HCT-116^p53−/− (p53 knockout mutant) colon carcinoma cells; assay: MTT cell viability assay, HCT-116 p53-/-; format: cell-based, human; conditions: 72 h
Method: as §1, with “Cells” for “All complexes stable in solution were investigated for their anti-proliferative effect on nine human cancer cell lines, using the MTT-based cell viability assay. Cells”

[4] = tested on: HeLa cervix carcinoma cells; assay: MTT cell viability assay, HeLa; format: cell-based, human; conditions: 72 h
Method: as §1

[5] = tested on: MCF-7 mamma carcinoma cells; assay: MTT cell viability assay, MCF-7; format: cell-based, human; conditions: 72 h, read-out: IC50 MCF7
Method: as §1

518A2 melanoma cells = assay: MTT cell viability assay, 518A2; format: cell-based, human; conditions: 72 h
Method: as §1

[6] = tested on: human adult dermal fibroblasts HDFa; assay: MTT cell viability assay, HDFa; format: cell-based; conditions: 72 h, non-malignant fibroblasts
Method: as §1

EA.hy926 cells = assay: Tube formation assay; format: cell-based, human; conditions: 5 µM (CA-4 0.01 µM)
Method: EA.hy926 cells were cultured overnight in endothelial medium (37 °C, 95% humidity, 5% CO2) instead of DMEM. In addition, Matrigel was thawed on ice in the refrigerator. Pipette tips and 96-well plates were stored at − 20 °C overnight. The next day, 30 µL of Matrigel was added to each well bubble-free and the well plate was incubated for approximately 45 min (37 °C, 95% humidity, 5% CO2). Subsequently, 100 µL of cell suspension was added to each well at a concentration of 0.4–0.5 × 10^6 cells/mL onto the Matrigel-treated wells and the substances were added in tenfold pre-dilution. This was followed by incubation for approximately 6 h, until tubes formed in the negative control with DMSO. At this point, documentation under the microscope took place.

[7] = tested on: HT-29 colon carcinoma cells; assay: MTT cell viability assay, HT-29; format: cell-based, human; conditions: 72 h
Method: as §1

[8] = tested on: mdr KB-V1^Vbl cervix carcinoma cells; assay: MTT cell viability assay, KB-V1 (with and without verapamil); format: cell-based, human; conditions: 72 h, without verapamil
Method: as §1

[9] = tested on: mdr MCF-7^Topo mamma carcinoma cells; assay: MTT cell viability assay, MCF-7Topo; format: cell-based, human; conditions: 72 h, read-out: IC50 MCF7^Topo
Method: as §1

U-87 glioblastoma cells = assay: MTT cell viability assay, U-87; format: cell-based, human; conditions: 72 h
Method: as §1

[10] = Stability by NMR in DMSO-d6 + 5% D2O; format: physicochemical; conditions: for Stability (31P NMR): DMSO-d6 with additional D2O, three days
From the text: In a further corroboration of the complex stability, the similarity of the chalcogens sulfur and selenium was exploited. The selenolato complex 10 was synthesized and examined for its stability under identical conditions. Since ^77Se is a 1/2 spin nucleus with roughly 8% natural abundance, its compounds can be investigated directly. Depending on whether a break in the Se–Au or the Au–PR3 bond would occur, the shift would change by several hundred ppm and serve as unequivocal evidence. […] In addition, we investigated the stability of complexes 1 and 5 as representatives of the series of purines and purine nucleosides, respectively, in cell culture medium by UV/Vis spectroscopy.

[11] = tested on: caspase 3/7 in 518A2 melanoma cells; assay: Caspase 3/7 activation; format: cell-based, human; conditions: 518A2 cells, 10 µM, 6 h
Method: The assay was conducted, following manufacturer’s instructions using the Cell Meter Caspase 3/7 activity apoptosis assay kit (AAT Bioquest). Briefly, 518A2 melanoma cells were seeded in 96-well flat black microtiter plates with a density of 0.22 × 10^6 cells per mL and 90 µL per well. After 24 h of incubation, 10 µL per well of tenfold diluted test compounds was added, and the cells were incubated for a further 6 h. Subsequently, 100 µL per well of Caspase 3/7 substrate working solution was added and incubated for 1 h in the dark at room temperature. The fluorescence was measured using a micro-plate reader (Tecan) at ex/em = 490/525 nm.

SMILES | IC50 [1] [µM] | IC50 [2] [µM] | IC50 [3] [µM] | IC50 [4] [µM] | IC50 [5] [µM] | IC50 (518A2 melanoma cells) [µM] | IC50 [6] [µM] | Inhibition of tube formation (EA.hy926 cells) | IC50 [7] [µM] | IC50 [8] [µM] | IC50 [9] [µM] | IC50 (U-87 glioblastoma cells) [µM] | Stability (31P NMR) [10] | Caspase 3/7 activity [11] | Stability (77Se NMR) ([10]; DMSO-d6 + 5% D2O, identical conditions)
CSc1ncnc2c1ncn2[C@@H]1O[C@H](CO)[C@@H](O)[C@H]1O [6-MMR, 6-methylmercaptopurine riboside, reference compound] | 0.11 ± 0.001 | 0.1 ± 0.008 | 0.05 ± 0.001 | 0.0056 ± 0.0003 | 0.09 ± 0.003 | 1.4 ± 0.12 | 5.8 ± 0.46 | inhibitory effects |  |  |  |  |  |  | 
COc1ccc(/C=C\c2cc(OC)c(OC)c(OC)c2)cc1O [CA-4, combretastatin A-4] |  |  |  |  |  |  |  | Complete inhibition of tube formation |  |  |  |  |  |  | 
c1ccc([PH]([Au][S]c2ncnc3[nH]cnc23)(c2ccccc2)c2ccccc2)cc1 [Complex 1, (1,7-Dihydro-6H-purine-6-thiolato) (triphenylphosphane) gold(I)] | 2.9 ± 0.7 | 4.9 ± 1 | 1.7 ± 0.3 | 2.6 ± 0.04 | 13 ± 1.12 | 8 ± 0.71 |  |  | 8 ± 0.73 | 1.9 ± 0.1 | 6.6 ± 0.65 | 0.91 ± 0.09 |  |  | 
Nc1nc([S][Au][PH](c2ccccc2)(c2ccccc2)c2ccccc2)c2nc[nH]c2n1 [Complex 2, (2-Amino-1,7-dihydro-6H-purine-6-thiolato) (triphenylphosphane) gold(I)] | 0.5 ± 0.1 | 0.8 ± 0.01 | 0.58 ± 0.01 | 0.6 ± 0.05 | 2.2 ± 0.13 | 4.4 ± 0.33 |  |  | 4.4 ± 0.32 | 0.3 ± 0.07 | 3.7 ± 0.37 | 1 ± 0.1 |  |  | 
CC[PH](CC)(CC)[Au][S]c1ncnc2[nH]cnc12 [Complex 3, (1,7-Dihydro-6H-purine-6-thiolato) (triethylphosphane) gold(I)] | 1.5 ± 0.11 | 6.3 ± 0.3 | 3.6 ± 0.8 | 6.8 ± 0.62 | 9.4 ± 0.53 | 8.4 ± 0.62 |  |  | 6.4 ± 1.4 | 2.5 ± 0.32 | 10 ± 0.26 | 6.9 ± 0.47 |  |  | 
CC[PH](CC)(CC)[Au][S]c1nc(N)nc2[nH]cnc12 [Complex 4, (2-Amino-1,7-dihydro-6H-purine-6-thiolato) (triethylphosphane) gold(I)] | 1.1 ± 0.08 | 25 ± 3.1 | 11 ± 0.5 | 15 ± 4.1 | 21 ± 3.4 | 16 ± 0.91 |  |  | 5.8 ± 1.7 | 12 ± 1 | 4.9 ± 0.43 | 7 ± 0.66 | did not change noticeably |  | 
CC[PH](CC)(CC)[Au][S]c1ncnc2c1ncn2[C@@H]1O[C@H](CO)[C@@H](O)[C@H]1O [Complex 7, (1,7-Dihydro-6H-purine-9-β-D-ribofuranosyl-6-thiolato) (triethylphosphane) gold(I)] | 0.43 ± 0.02 | 1.6 ± 0.2 | 0.5 ± 0.03 | 0.51 ± 0.05 | 2.1 ± 0.2 | 3 ± 0.21 | 7 ± 0.62 |  | 2.2 ± 0.17 | 0.4 ± 0.04 | 1.2 ± 0.11 | 1.1 ± 0.11 | did not change noticeably | even exceeded the effects of the three controls | 
CC[PH](CC)(CC)[Au][S]c1nc(N)nc2c1ncn2[C@@H]1O[C@H](CO)[C@@H](O)[C@H]1O [Complex 8, (2-Amino-1,7-dihydro-6H-purine-9-β-D-ribofuranosyl-6-thiolato) (triethylphosphane) gold(I)] | 1.7 ± 0.14 | 5.5 ± 0.3 | 1.8 ± 0.06 | 2.4 ± 0.21 | 10 ± 0.83 | 3.4 ± 0.33 | 7 ± 0.7 |  | 4.5 ± 0.34 | 0.7 ± 0.07 | 3.6 ± 0.34 | 1 ± 0.03 |  |  | 
CC[PH](CC)(CC)[Au][S]c1nc([S][Au][PH](CC)(CC)CC)c2nc[nH]c2n1 [Complex 9, (1,7-Dihydro-6H-purine-2,6-bisthiolato) (triethylphosphane) gold(I)] |  | 11.2 ± 0.78 | 3.7 ± 0.35 | 17.6 ± 0.8 |  | 13.4 ± 1.2 |  |  | 11.1 ± 0.32 |  |  |  |  |  | 
CC[PH](CC)(CC)[Au][Se]c1ncnc2[nH]cnc12 [Complex 10, (1,7-Dihydro-6H-purine-6-selenolato) (triethylphosphane) gold(I)] |  |  |  |  |  |  |  |  |  |  |  |  |  |  | no change in the shift of the ^77Se NMR signal
